Laboratory results: US20050214898A1, “Methods of carotenoid production in bacteria” (priority 2004, published 2005)
“And” between values parts separate entries of the source, which are not always exact repeats. Equal entries are not always repeated. “Also recorded” adds a separate entry of the source.

Key:
F. multivorum ATCC 55238 = experiment: Effect of salt supplementation of the basal medium on growth and carotenoid production (shake flask); type: cell-based, Flavobacterium multivorum; details: for effect on growth: basal medium supplemented with salt; for effect on the volumetric production of β-carotene / β-carotene as proportion of the total carotenoid content: basal medium supplemented with salt 250 mg/100 ml
Experimental: (§1) Pigment extraction from bacterial cells. One ml of culture broth was centrifuged at 5000 rpm for 10 min at 4° C. The supernatant was discarded and media components of the cell pellet were washed away by repeated suspension in sterile distilled water and centrifugation. The cell mass was subjected to sonication using a sonic dismembrator (Fisher Scientific, Model number F60) in the presence of 1 ml cold, oxygen-free methanol containing 0.01% butylated hydroxy toluene (BHT) (w/v) for 30 seconds (output power 5). Methanol extraction was repeated for complete extraction of carotenoids. The sonicated sample was centrifuged to remove the white cell pellet. The supernatant contains extracted carotenoids.
(§2) High performance liquid chromatography (HPLC). The pigments in methanol were dried by vacuum evaporation in a Speedvac Plus (SC 110, Savant) and re-dissolved in one ml of HPLC mobile phase (hexane: dichloromethane: methanol: N,N′-di-isopropylethylamine (80:19.2:0.7:0.1 v/v)). HPLC separation was carried out at a flow rate of 1.0 ml min^−1 on a cyano column (Microsorb 25 cm length×4.6 mm id, Rainin Instrument Co. Woburn, Mass., U.S.A.). The column was maintained at room temperature and the HPLC detector was operated at 450 nm. Peak identities were confirmed by photodiode-array spectra and by coelution with authentic standards as necessary.
Cell growth measurement. Cell growth was monitored by measurement of turbidity at […] with a UV-visible spectrophotometer (Smart Spec™ 3000, BioRad). Samples were suitably diluted (so as to have absorbance of between 0.2 to 0.8) with double distilled water. The absorbance was measured immediately at 500 nm. For cell dry weight (CDW) estimation, the 10 ml sample was centrifuged at 10,000 g for 10 minutes and washed twice with double distilled water by suspension and centrifugation. The supernatant was discarded and the cell pellet was taken to constant weight in an oven at 80° C.
Effect of salt supplementation. F. multivorum was studied for growth and carotenoid production in the liquid basal medium supplemented with the salts listed in Table 1 (see, FIG. 7) (250 mg/100 ml) to evaluate the effect of mineral salts. The F. multivorum cultures were grown in quadruplicate in shake flask cultures at 30° C. on a rotary shaker rotates at 250 rpm.

F. multivorum = experiment: Effect of TCA cycle intermediates in the growth medium on zeaxanthin production; type: cell-based, Flavobacterium multivorum; details: growth medium supplemented with TCA intermediate
Experimental: as §1
as §2, with “nm.” for “nm. Peak identities were confirmed by photodiode-array spectra and by coelution with authentic standards as necessary.”
Media optimization for zeaxanthin production.

Row | SMILES | effect on growth (F. multivorum ATCC 55238) | effect on the volumetric production of β-carotene (F. multivorum ATCC 55238) | β-carotene as proportion of the total carotenoid content (F. multivorum ATCC 55238) | effect on the volumetric production of zeaxanthin (F. multivorum) | further results
1 | O=C([O-])[O-].[Na+].[Na+] [sodium carbonate] | minor inhibition on growth | positive effect; also recorded: maximum stimulatory effect | 70 % (w/w) and 69 % (w/w) | – | –
2 | [Ca+2].[Cl-].[Cl-] [calcium chloride] | minor inhibition on growth | maximum stimulatory effect | 52 % (w/w) | – | –
3 | O=C(O)CC(O)C(=O)O (stereo not drawn) [malic acid] | – | – | – | maximum stimulatory effect | –
4 | O=C(O)CC(C(=O)O)C(O)C(=O)O (stereo not drawn) [Isocitric acid, isocitric acid] | – | – | – | maximum stimulatory effect | –
5 | [Cl-].[Li+] [Lithium chloride] | – | – | – | – | maximum β-carotene level (proportion of total carotenoid) (F. multivorum ATCC 55238; at 24 h of growth phase): 44 %, w/w; β-carotene level (proportion of total carotenoid) (F. multivorum ATCC 55238; end of fermentation (48 h)): 21 % (w/w)
6 | NC(N)=O [Urea, urea] | minor inhibition on growth | maximum stimulatory effect | 66 % (w/w) | – | effect on the volumetric production of β-carotene (F. multivorum ATCC 55238; listed as urea): positive effect; β-carotene as proportion of the total carotenoid content (F. multivorum ATCC 55238; listed as urea): 70 % (w/w)
